Laboratory results taken from patent publication US7442798B2, “Autoinducer molecules and uses therefor” (priority 2000, dated 2008).
“Also recorded” adds a separate entry of the source.

How the values were obtained:
lasB′-lacZ fusion [1] = assay: PQS bioassay: activation of lasB′-lacZ fusion in P. aeruginosa strain PAO-R1 (lasR−) (pTS400), β-galactosidase assay; assay type: cell-based, Pseudomonas aeruginosa
Method: To monitor PQS bioactivity, 1-ml cultures of P. aeruginosa strain PAO-R1 (pTS400) were grown for 18 h at 37° C. with shaking (260 rpm; initial optical density was 0.02 at 660 nm) in the presence of culture extract or synthetic PQS. This was followed by measuring activation of the lasB′-lacZ fusion with the use of β-galactosidase (β-gal) assays as described by Miller (19). For culture extracts, bacterial culture fluid was extracted with ethyl acetate and was prepared as described (3). Extracts that were resuspended in ethyl acetate were added to bioassay tubes, and ethyl acetate was removed by drying under a stream of nitrogen. Unless otherwise specified, the amount of material assayed was extracted from 10 ml of culture fluid.

RhlR = assay: E. coli bioassay: strain DH5a (pECP62.5) with lasB′-lacZ reporter and inducible tacp-rhlR; assay type: cell-based, Escherichia coli; conditions: E. coli strain DH5a (pECP62.5), tacp-rhlR induced
Method: Using this information, an experiment was conducted to define the requirements for signal activity by developing an E. coli bioassay for the signal. E. coli strain DH5a was transformed with plasmid pECP62.5, which contained the lasB′-lacZ reporter and the inducible tacp-rhlR gene. If the signal worked directly through RhlR, then the induction of tacp-rhlR in the presence of exogenously added signal should result in the activation of lasB′-lacZ in E. coli strain DH5a (pECP62.5).

Staphylococcus aureus = assay: anti-Staphylococcus aureus activity; assay type: cell-based
E. coli = assay: anti-E. coli activity; assay type: cell-based
lasB′-lacZ = lasB′-lacZ bioassay in lasR, rhlR double mutant strain PAO-JP3 (pTS400); assay type: cell-based, Pseudomonas aeruginosa
Method: This molecule was determined to have a 4-quinolone base structure and therefore has been designated as the Pseudomonas quinolone signal (PQS). Furthermore, exogenously added PQS induced a lasB′-lacZ fusion in the P. aeruginosa lasR mutant, strain PAO-R1, containing the plasmid pTS400. […] Despite the ability of PQS to activate lasB′-lacZ in the absence of lasR, the production of PQS required an active LasR protein. […] It was also determined that at least RhlR was required for PQS to act as a signal because lasB′-lacZ was not induced by PQS in the lasR, rhlR double mutant, strain PAO-JP3, containing the plasmid pTS400.

lasB′-lacZ fusion [2] = conditions: strain PAO-R1 (lasR) (pTS400); cited from earlier work

CCCCCCCc1cc(O)c2ccccc2[n+]1[O-] [2-heptyl-4-hydroxy-quinoline-N-oxide, reference compound]
induction of lasB′-lacZ / activity in the PQS bioassay (in words) (lasB′-lacZ fusion [1]; strain PAO-R1 (lasR−) (pTS400)): not active

CCCCCCCc1[nH]c2ccccc2c(=O)c1O [PQS, 2-heptyl-3-hydroxy-4-quinolone]
PQS response, lasB′-lacZ, in recombinant E. coli expressing RhlR (in words) (RhlR): not replicated | anti-Staphylococcus aureus activity (Staphylococcus aureus): does not have detectable | anti-E. coli activity (E. coli): does not have detectable | activation of the lasB promoter (β-gal activity) (lasB′-lacZ fusion [1]; 5 mM synthetic PQS, strain PAO-R1 (lasR−) (pTS400), FIG. 6): 148 Miller units | EC50 (lasB′-lacZ fusion [1]; Pseudomonas aeruginosa, read-out: amount required to activate the bioassay to half of its maximum activity): ~30 µM | induction of lasB′-lacZ / activity in the PQS bioassay (in words) (lasB′-lacZ fusion [1]; strain PAO-R1 (lasR−) (pTS400)): active; also recorded: dose-dependent induction | induction of lasB′-lacZ (in words) (lasB′-lacZ): not induced

CCCCCCCCCC(=O)CC(=O)N[C@H]1CCOC1=O [3-oxo-C12-HSL, N-3-(oxododecanoyl)-L-homoserine lactone, reference compound]
response of lasB′-lacZ fusion to exogenously added autoinducer (in words) (lasB′-lacZ fusion [2]): unresponsive | induction of lasB′-lacZ / activity in the PQS bioassay (in words) (lasB′-lacZ fusion [1]; strain PAO-R1 (lasR−) (pTS400)): could not be mimicked

CCCC(=O)N[C@H]1CCOC1=O [C4-HSL, N-butanoyl-L-homoserine lactone, reference compound]
response of lasB′-lacZ fusion to exogenously added autoinducer (in words) (lasB′-lacZ fusion [2]): mildly activated | induction of lasB′-lacZ / activity in the PQS bioassay (in words) (lasB′-lacZ fusion [1]; strain PAO-R1 (lasR−) (pTS400)): could not be mimicked

CCCCCCCC1C(=O)c2ccccc2N=C1O (stereo not shown) [2-hydroxy-3-heptyl-4-quinolone, reference compound]
induction of lasB′-lacZ / activity in the PQS bioassay (in words) (lasB′-lacZ fusion [1]; strain PAO-R1 (lasR−) (pTS400)): not active
